A melting point compilation (Tetko et al.; mined from patent text by program, amines drawn as free bases though some values may be those of a salt)

| Compound | melting point [°C] |
| --- | --- |
| Cc1c(C(=O)Nc2ccc(N3CCN(CCO)CC3)c(C#N)c2)cnn1C | 228 to 230 |
| OC(c1ccccc1)(C1CC1)C(c1cccc(Cl)c1)n1ccnc1 (configuration not stated) | 140 |
| CC(C)CCCOc1c(-c2ccc(S(C)(=O)=O)cc2)cnn(-c2cccc(Cl)c2)c1=O | 139 to 140 |
| N#Cc1cc(F)c(-n2cnc(C(F)(F)F)cc2=O)cc1F | 95 |
| COc1ccc(NN=C(Sc2ccc(Cl)cc2)C(C)=O)cc1 | 112 to 114 |
| N=C(Nc1ccccc1C(F)(F)F)NC12CC3CC(CC(C3)C1)C2 | 259 to 260 |
| Cc1ccc2ncc(C)cc2c1 | 50 |
| CC(C)(O)C#Cc1ncn2c1[C@@H]1CCCN1C(=O)c1ccccc1-2 | 128 |
| O=[N+]([O-])c1ncc(Cl)cc1O | 97 |
| CSc1ccc(Cn2nc(-c3ccc(SC)cc3)c(-c3ccc(F)cc3)cc2=O)cc1 | 116 |
| c1ccc(Cn2c3ccccc3c3ccccc32)cc1 | 121 to 122 |
| CCc1cccc2c(/C=C/C(=O)N3CCCCC3)cc(OC)c(OCOC)c12 | 85 to 86 |
| O=C(N[C@H]1CC(=O)N(c2cc(Cc3n[nH]c(=O)c4ccccc34)ccc2F)C1=O)OCc1ccccc1 | 121 to 127 |
| Oc1ccc(F)c(-c2c(-c3ccccc3)cnc3c(C(F)(F)F)cccc23)c1 | 85 |
| Cc1cnc(C)c(Cl)c1N | 82 to 83 |
| O=C1OCC(CCO)(c2ccc(Cl)c(Cl)c2)CN1Cc1ccccc1 (configuration not stated) | 143 |
| C=CCn1c(Br)c(C[C@H](NC(C)=O)C(=O)OC)c2c(Br)c(OC)c(Br)cc21 | 191 to 192 |
| COc1cc2[nH]c(=O)c3c(c2cc1OC)CCN(CCN(C)C)C3 | 160 to 164 |
| O=C1C(c2ccc(O)cc2)=C(c2ccccc2)c2cc(O)cc(O)c21 | 128 to 130 |
| CCOC(=O)c1nc(C)oc1C(=O)Cl | 103 to 105 |
| N#CCCNC(=O)C1=CC(CF)(CF)Oc2cc(Cl)c(Cl)cc21 | 135 to 136 |

| Compound | melting point [°C] |
| --- | --- |
| COc1ccc(CN2CC(=O)Nc3cccc(Cl)c3C2=O)c(OC)c1 | 230 to 231 |
| CCn1cc(C(=O)O)c(=O)c2cc(F)c(F)c(C)c21 | 219 to 221 |
| Cc1cc(-n2ccnc2)c2cccc(OCc3c(Cl)ccc(S(=O)(=O)N4C[C@H](O)C[C@H]4C(=O)O)c3Cl)c2n1 | 140 |
| C=CCNC(=O)C(C)N (configuration not stated) | 77.5 to 78 |
| CC(C)(C)OC(=O)NN[C@@H]1c2cc(C#N)ccc2OC(C)(C)[C@H]1O (relative stereo) | 136 to 138 |
| Clc1ccc2[nH]c3c4ccccc4nc-3c(Cl)c2c1 | 281 to 282 |
| COc1ccc(Br)c(OC)c1C#N | 113 to 115 |
| NOC(C=CCBr)C(=O)O (configuration not stated) | 53 to 55 |
| CCc1cn(C)cc(-c2ccc(Cl)c(C(F)(F)F)c2)c1=O | 121 to 123 |
| COc1ncnc(-c2cc(NS(C)(=O)=O)c(C#N)cc2F)c1C | 218 to 220 |
| CS(=O)(=O)Cc1ccc2oc([N+](=O)[O-])c(-c3ccccc3)c2c1 | 178 to 181 |
| Cc1ccc(-c2nn(-c3ccccc3)c(N)c2C#N)cc1 | 186 to 188 |
| COc1ccc(CNc2ccc(Cl)cc2C(=O)C(F)(F)F)cc1 | 82 to 84 |
| CNC(=O)N1CCc2cc(OC)c(OC)c(O)c2C1Cc1cccc(OC)c1 (configuration not stated) | 75 to 80 |
| CCN1CCN2C1=Nc1ccc(Cl)cc1C2c1ccccc1 (configuration not stated) | 145 to 146 |
| N#Cc1nn(-c2c(Cl)cc(C(F)(F)F)cc2Cl)c(Br)c1[N+](=O)[O-] | 147 to 150 |
| O=C1N(c2ccccc2)CCN1C1CCN(Cc2ccccc2)CC1 | 168 to 170 |
| CCCCN(C1CCCOc2c(C)cc(Cl)cc21)S(=O)(=O)CC (configuration not stated) | 83 to 87 |
| O=C(O)CS(=O)(=O)C12CC3CC(CC(C3)C1)C2 | 158 to 162 |
| O=CNNc1ccc(NC(=S)Nc2ccc(NNC=O)cc2)cc1 | 212 to 214 |
| Cc1cc(-c2cscn2)ccc1-c1cc(C(F)(F)F)nn1-c1ccc(S(C)(=O)=O)c(F)c1 | 132 |

| Compound | melting point [°C] |
| --- | --- |
| N#Cc1cc(-c2nc3cncnc3s2)ccc1Oc1ccccc1Cl | 209 to 211 |
| CSc1ccc2c(c1)C(O)(C1CCN(C)CC1)c1ccc(F)cc1S2 (configuration not stated) | 180 to 189 |
| CC(=O)OCCOCn1c(=O)sc2c(=O)[nH]c(N)nc21 | 173 to 176 |
| COc1ccc(-c2nc(NC(=O)c3cccnc3)sc2-c2ccnc(NC(=O)c3cccnc3)c2)cc1 | 229 to 232 |
| O=c1c2ccccc2n(CCCOC2CCCCO2)c2ccccc12 (configuration not stated) | 140 to 142 |
| CC(C)(C)OC(=O)Nc1cc(N2CCC(OC3CCCCO3)CC2)c(-c2ccc(F)cc2)cc1NC(=O)CC(=O)c1cccc(-n2ccnc2)c1 (racemic) | 129 to 132 |
| Cc1noc(C)c1COc1cc(-n2c(=O)cc(C(F)(F)F)n(C)c2=O)c(F)cc1Cl | 120 to 123 |
| Cn1cc(C(=O)O)c(=O)c2cc3cc(F)c(N4CCN(O)CC4)c(F)c3nc21 | 285 to 288 |
| COc1ccc(C(=O)N2CCCC(=O)c3ccc(Cl)cc3CCC2=O)cc1 | 143 |
| OC(CN1CCC(c2ccc(F)cc2)CC1)CN1CCC(c2ccc(F)cc2)CC1 | 79 to 80 |
| CCOC(=O)CCC1CCCC2CCC(=O)NC21 (configuration not stated) | 45 to 50 |
| O=C1OC(=Cc2c[nH]c3ccccc23)C(=O)N1Cc1cc(C(F)(F)F)cc(C(F)(F)F)c1 | 145 to 146 |
| N#Cc1c(N)oc2ccc(Cl)cc2c1=O | 340 |
| O=C(c1cc(=O)c2cc(O)ccc2[nH]1)N1CCC(Cc2ccc(F)cc2)CC1 | 190 |
| CCC1CC2C3CCC4=CC(=O)CCC4C3CCC2(C)C1OC(=O)CCl (configuration not stated) | 135 to 136 |
| Cc1c(C)c2c(c(C)c1O)CCC(C)(C(=O)NC1CCN(c3ccc(NC(=N)c4cccs4)cc3)C1)O2 (configuration not stated) | 135 to 138 |
| COc1ccc(-c2c(Cl)ncn2-c2ccc(S(C)(=O)=O)cc2)cc1F | 196 |
| COc1ccc(S(=O)(=O)C(C)(Cc2cccc(OCCN3CCCCC3)c2)C(N)=O)cc1 (configuration not stated) | 74 |
| O=C1NC(=O)C(CCCc2ccc(O)cc2)O1 (configuration not stated) | 132 to 133 |
| CC(C(=O)O)c1ccc2c(c1)C(=O)c1cc(Cl)ccc1CS2 (configuration not stated) | 128 to 131 |

Further lines, results first:

| melting point [°C] | Compound |
| --- | --- |
| 140 to 141 | CCCn1nc(C(F)(F)CCC)nc1Cc1ccc(-c2ccccc2-c2nnn[nH]2)nc1 |
| 113 to 115 | COc1ccc2nccc(CCNC(C)=O)c2c1 |
| 203 to 205 | CCOC(=O)c1cn(-c2ccc(F)cn2)c2c(F)c(F)c(F)cc2c1=O |
| 151 to 152 | CCCCCCCCCCOc1ccc(C(=O)O)cc1C12CC3CC(CC(C3)C1)C2 |
| 130 | CCCCc1nc2c(N)nc(C)c(C)c2n1CCCCNS(C)(=O)=O |
| 98 to 104 | C=C(C)C(=O)OCCCCCCOc1ccc(C(=O)Oc2ccc3ccc(=O)oc3c2)cc1 |
| 198 to 200 | Nc1nonc1-c1nc2ccccc2n1CC(=O)c1ccc(Cl)c([N+](=O)[O-])c1 |
| 165 to 166 | O=C(Cc1ccc2[nH]cc(CCN3C(=O)c4ccccc4C3=O)c2c1)NCc1ccccc1 |
| 243 to 245 | CCCCCc1cc2c(nc(O)n2Cc2cccnc2)c(N)n1 |
| 198 | CCOCc1nc2c(N)nc3ccccc3c2n1CC1(O)CCN(C)CC1 |
| 80 to 83 | CCc1ccc(Cc2c(OCc3ccccc3)n[nH]c2C)cc1 |
| 63 to 65 | CCC(=O)C(C)Oc1cc(C(=O)OC)ccc1OC (configuration not stated) |
| 92 to 94 | CCOC(=O)NC(=NCCCCc1ccccn1)NCCCc1c[nH]cn1 |
| 91 to 92 | CONC(=O)c1cc(OC)cc(Oc2cccc(C(F)(F)F)c2)n1 |
| 118 to 119 | CC(=O)c1ccc(CCC(=O)O)cc1 |
| 165 | COc1ccc(C(=O)Nc2ccc3ccc(OCC(=O)N(C)C)nc3n2)cc1 |
| 125 | CC(C)N(C(=O)Cn1cncn1)c1ccccc1 |
| 147 | CCO/C(=C\c1ccc(OCCc2ccc(OS(C)(=O)=O)cc2)c(OC)c1)C(=O)O |
| 181 to 182 | O=C1c2ccccc2C(=O)N1CCc1cn2ccccc2n1 |
| 138 to 141 | CCCCn1c(=O)c(N)c(-c2cccc(OC)c2)c2cccnc21 |

| melting point [°C] | Compound |
| --- | --- |
| 196 to 198 | CC(C)n1nc(-c2cc(C#N)c(C(=O)O)nc2-c2ccccc2)ccc1=O |
| 240 to 241 | CCOP(=O)(O)C(=Nc1ccc(-c2c[nH]cn2)cc1)NCCSC |
| 196 to 197 | CNC(=O)c1c(-c2ccccc2)oc(-c2ccccc2)cc1=O |
| 160 to 161 | CCOCc1nc2c(N)nc3cccnc3c2n1C1(OC)CCCCC1 |
| 71 to 72 | CCOC(=O)c1cnc2sccc2c1Cl |
| 70 | CC(C)(C)OC(=O)NCCCCC(=O)NCCC(=O)O |
| 148 to 149 | CCc1ccc(N=c2sc3ncccc3c(=O)n2CC)cc1 |
| 259 to 265 | Cc1ccccc1-c1cc(F)c2ncc(C(=O)NCc3ccc(Cl)cc3)c(O)c2c1 |
| 84 to 86 | Cc1cc(C)cc(COC(=O)[C@H](Cc2ccc3ccccc3c2)NC(=O)OC(C)(C)C)c1 |
| 242 to 244 | CCCC(=O)c1cnc2ccc(O)cc2c1Nc1ccc(O)cc1C |
| 103 to 104 | COC(=O)COc1cccc(NC(=O)c2cc(-c3cccc(F)c3)ccc2F)c1 |
| 78 to 79 | O=C(c1ccc(F)cc1)N1CCC[C@H](c2nc(-c3ccccc3)no2)C1 |
| 185 to 186 | O=C(c1ccccc1)c1cnn2c(-c3ccncc3)ccnc12 |
| 202 to 204 | COC(=O)c1cccn2c(C(=O)c3ccc(N4C[C@H](CNC(C)=O)OC4=O)cc3)cnc12 |
| 223 to 224 | C=C(C)C(=O)Nc1cccc2c(O)cccc12 |
| 83 | CCN(CC)C(=O)c1cccnc1OC |
| 117 to 122 | C/C(=C\COc1ccc(Cl)cc1Cl)C(=O)O |
| 88 to 92 | CN(C)CCCOc1ccc(-c2nnc(CSCCOc3ccccc3)n2Cc2ccccc2)cc1 |
| > 260 | Nc1nc2ccc(S(=O)(=O)n3c(CCC(=O)O)cc4nc(Cl)ccc43)cc2s1 |
| 159 to 163 | NC(=NO)c1cc2c(cn1)[nH]c1ccccc12 |
